Measured values as given in US20250032458A1, “TREATMENT OF CANCER WITH AN FGFR KINASE INHIBITOR” (Kinnate Biopharma Inc., priority 2021, published 2025).
Where two headings read alike, the source gives them in different places.

How the values were obtained:
RT-112 cells = assay: Cell proliferation, 5-day CellTiter-Glo; assay type: cell-based; settings: Homo sapiens, 120 h; RT-112, 5 days; read-out: 5-Day CTG EC50
[1] = test system: endogenous FGFR in five human tumor cell lines; settings: read-out: EC50 values, inhibition of endogenous FGFR
SNU-16 cells = assay: Cell proliferation, 5-day CellTiter-Glo; assay type: cell-based; settings: Homo sapiens, 120 h; SNU-16, 5 days; read-out: 5-Day CTG EC50
KATO-III cells = assay: Cell proliferation, 5-day CellTiter-Glo; assay type: cell-based; settings: Homo sapiens, 120 h, 5 days, read-out: 5-Day CTG EC50
SW-780 cells = assay: Cell proliferation, 5-day CellTiter-Glo; assay type: cell-based; settings: Homo sapiens, SW780, 120 h; SW-780, 5 days; read-out: 5-Day CTG EC50
TNK1 = biological target: T1, TNK1 (Homo sapiens, UniProt Q13470); assay: Kinome selectivity screen by mobility shift assay (321 kinases); settings: read-out: % Inhibition 1 μM
T1 sequence (Q13470 1-666): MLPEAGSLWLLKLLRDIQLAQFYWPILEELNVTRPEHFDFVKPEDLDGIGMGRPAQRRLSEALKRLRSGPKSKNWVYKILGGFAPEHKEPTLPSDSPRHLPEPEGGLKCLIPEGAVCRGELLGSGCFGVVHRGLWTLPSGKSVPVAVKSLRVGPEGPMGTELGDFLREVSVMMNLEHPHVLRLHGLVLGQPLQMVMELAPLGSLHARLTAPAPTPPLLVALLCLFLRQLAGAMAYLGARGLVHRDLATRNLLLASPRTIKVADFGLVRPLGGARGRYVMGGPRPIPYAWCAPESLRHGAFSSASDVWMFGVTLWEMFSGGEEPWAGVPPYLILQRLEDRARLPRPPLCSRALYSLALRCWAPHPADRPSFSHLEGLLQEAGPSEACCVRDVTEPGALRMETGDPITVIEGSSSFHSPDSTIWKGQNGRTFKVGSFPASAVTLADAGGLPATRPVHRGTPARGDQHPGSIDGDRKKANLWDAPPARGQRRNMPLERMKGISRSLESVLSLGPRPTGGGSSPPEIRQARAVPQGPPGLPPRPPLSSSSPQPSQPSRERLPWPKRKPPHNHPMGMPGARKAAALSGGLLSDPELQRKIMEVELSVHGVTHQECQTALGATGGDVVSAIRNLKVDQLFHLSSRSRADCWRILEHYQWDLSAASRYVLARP

[2] = Exposure in mice bearing RT-112 xenografts; settings: mouse, in vivo, PO QD 2-15 mg/kg, 24-hour period following the last dose
Experimental: (§1) Three animals in the 15 mg/kg cohort lost >10% of their body weight during the course of treatment but recovered by end of study.

LOK (AKA STK10) = LOK (AKA STK10) (Homo sapiens, UniProt O94804); assay: Kinome selectivity screen by mobility shift assay (321 kinases); settings: read-out: % Inhibition 1 μM
Chain of LOK (AKA STK10) (O94804 whole entry): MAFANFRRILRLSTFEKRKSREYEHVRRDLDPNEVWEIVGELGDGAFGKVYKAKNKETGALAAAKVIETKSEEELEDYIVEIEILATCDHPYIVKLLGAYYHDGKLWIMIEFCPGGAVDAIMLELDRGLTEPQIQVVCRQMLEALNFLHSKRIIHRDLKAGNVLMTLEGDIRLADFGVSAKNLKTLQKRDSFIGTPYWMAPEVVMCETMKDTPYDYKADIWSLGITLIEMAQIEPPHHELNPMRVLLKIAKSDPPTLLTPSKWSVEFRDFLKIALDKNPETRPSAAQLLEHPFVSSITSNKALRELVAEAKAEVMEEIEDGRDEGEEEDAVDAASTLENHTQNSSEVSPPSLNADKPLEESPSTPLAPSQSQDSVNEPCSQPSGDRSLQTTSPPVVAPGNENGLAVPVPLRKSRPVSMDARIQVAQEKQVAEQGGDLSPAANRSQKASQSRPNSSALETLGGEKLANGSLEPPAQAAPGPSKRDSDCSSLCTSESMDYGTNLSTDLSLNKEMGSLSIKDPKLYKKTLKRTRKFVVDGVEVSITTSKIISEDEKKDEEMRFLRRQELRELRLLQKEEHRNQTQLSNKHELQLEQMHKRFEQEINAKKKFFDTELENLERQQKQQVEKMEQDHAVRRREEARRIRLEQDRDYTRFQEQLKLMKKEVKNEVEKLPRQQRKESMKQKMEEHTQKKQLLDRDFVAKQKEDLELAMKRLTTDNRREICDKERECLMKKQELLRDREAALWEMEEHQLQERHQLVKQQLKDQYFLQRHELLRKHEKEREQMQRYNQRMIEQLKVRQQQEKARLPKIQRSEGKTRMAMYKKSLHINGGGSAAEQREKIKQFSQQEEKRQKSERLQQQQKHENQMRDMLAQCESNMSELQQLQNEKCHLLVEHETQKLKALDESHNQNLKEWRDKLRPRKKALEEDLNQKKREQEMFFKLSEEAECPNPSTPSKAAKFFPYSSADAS

panel of 321 kinases = assay: Kinome selectivity screen by mobility shift assay (whole panel); settings: 1 μM
[3] = test system: human SNU-16 gastric cancer xenograft (FGFR2 gene amplification); settings: for ΔT/ΔC / Final TV: 21 days; for Final TV: mean ± SEM
From the text: (§2) Groups and treatments were started when the mean tumor volume reached approximately 200-250 mm^3. Mice were assigned to respective groups based on their starting tumor volume and body weight such that the average values for both parameters were balanced for each treatment group.

[4] = test system: human RT-112 urinary bladder transitional cell carcinoma xenograft (FGFR3-TACC3 fusion); settings: for ΔT/ΔC / Final TV: 21 days; for Final TV: mean ± SEM
From the text: as §2

[5] = Tolerability / body weight in RT-112 xenograft mice; assay type: in vivo; settings: RT-112 model
Experimental: as §1

[6] = Exposure in mice bearing SNU-16 xenografts; settings: mouse, in vivo, PO QD 2-15 mg/kg, 24-hour period following the last dose
RT-4 cells = assay: Cell proliferation, 5-day CellTiter-Glo; assay type: cell-based; settings: Homo sapiens, 120 h; RT-4, 5 days; read-out: 5-Day CTG EC50
[7] = Tolerability / body weight in SNU-16 xenograft mice; assay type: in vivo; settings: SNU-16 model, all tested doses and schedules; lack of significant body weight changes
From the text: […]. Treatment was initiated when tumor volumes were approximately 200-250 mm^3 (actual mean TV for all groups was 262 mm^3).

**Q.** What does the source list for `C=CC(=O)N1C[C@@H](n2nc(C#Cc3c(F)cc4c(ncn4C4CC4)c3F)c(C(N)=O)c2NC)C[C@@H]1COC` [Compound 1, 1-((3S,5R)-1-acryloyl-5-(methoxymethyl)pyrrolidin-3-yl)-3-((1-cyclopropyl-4,6-difluoro-1H-benzo[d]imidazol-5-yl)ethynyl)-5-(methylamino)-1H-pyrazole-4-carboxamide]?
**A.** EC50 (RT-112 cells): 4.14 nM; EC50 [1]: 1 to 6 nM; EC50 (SNU-16 cells): 3.89 nM; EC50 (KATO-III cells): 5.19 nM; EC50 (SW-780 cells): 4.14 nM; inhibition at 1 µM (TNK1): 89.5%; AUC(0-t) [2]: 1320 to 9760 ng·h/mL; inhibition at 1 µM (LOK (AKA STK10)): 64.6%; number of non-FGFR kinases with >40% inhibition (panel of 321 kinases): 2; ΔT/ΔC ([3]; SNU-16, 2 mg/kg QD PO): 31%; Final TV ([3]; SNU-16, 2 mg/kg QD PO): 497 ± 22 mm^3; ΔT/ΔC ([3]; SNU-16, 5 mg/kg QD PO): 19%; Final TV ([3]; SNU-16, 5 mg/kg QD PO): 410 ± 20 mm^3; ΔT/ΔC ([3]; SNU-16, 15 mg/kg QD PO): 7%; Final TV ([3]; SNU-16, 15 mg/kg QD PO): 313 ± 13 mm^3; animals with tumor regression ([3]; SNU-16, 15 mg/kg QD cohort): one; ΔT/ΔC ([4]; RT-112, 2 mg/kg QD PO): 20%; Final TV ([4]; RT-112, 2 mg/kg QD PO): 446 ± 49 mm^3; animals exhibiting tumor regression ([4]; RT-112, 5 mg/kg QD): 4 of 9; ΔT/ΔC ([4]; RT-112, 5 mg/kg QD PO): 9%; Final TV ([4]; RT-112, 5 mg/kg QD PO): 343 ± 57 mm^3; animals exhibiting tumor regression ([4]; RT-112, 15 mg/kg QD): 4 of 9; ΔT/ΔC ([4]; RT-112, 15 mg/kg QD PO): 1%; Final TV ([4]; RT-112, 15 mg/kg QD PO): 274 ± 48 mm^3; average weight loss ([5]; 15 mg/kg QD): 5.4%; animals that lost >10% of their body weight during treatment (recovered by end of study) ([5]; 15 mg/kg cohort (9 animals)): Three; tolerability ([5]; all of the tested doses (2, 5, 15 mg/kg QD)): well tolerated; AUC(0-t) [6]: 1090 to 9760 ng·h/mL; EC50 (RT-4 cells): 5.96 nM; tolerability [7]: well tolerated
